Reference: patent publication US10988523B2, “Modified lipidated Relaxin B chain peptides and their therapeutic use” (Sanofi, priority 2018, dated 2021)
*1 amine or outer side, *2 acyl side, *3 side chain or, on linkers, in order; H or OH if unused. Where a SMILES comes first, the peptide text is derived from it. Side-chain parts run from the residue outwards. [ ]: non-standard residue; d: D form. The star is where a group is joined. γGlu = O=C(O)[C@H](CCC(=O)[*:2])N[*:1]; Stearoyl = CCCCCCCCCCCCCCCCCC(=O)*; Palmitoyl = CCCCCCCCCCCCCCCC(=O)*; Nle = CCCC[C@H](N)C(=O)O; AEEA = NCCOCCOCC(=O)O; Aib = CC(C)(N)C(=O)O

biological target: T1, RXFP1 (Homo sapiens, UniProt Q9HBX9); experiment: OVCAR5 cAMP assay (HTRF), RXFP1 agonist activity; format: cell-based; settings: OVCAR-5; maximal cAMP relative to H2-relaxin maximum (100%); read-out: EMax, OVCAR 5 cells (cAMP)
T1 construct: OVCAR5 cells expressing endogenous RXFP1; endogenous in cells; host or cells: OVCAR5 cells
T1 sequence (Q9HBX9 1-757): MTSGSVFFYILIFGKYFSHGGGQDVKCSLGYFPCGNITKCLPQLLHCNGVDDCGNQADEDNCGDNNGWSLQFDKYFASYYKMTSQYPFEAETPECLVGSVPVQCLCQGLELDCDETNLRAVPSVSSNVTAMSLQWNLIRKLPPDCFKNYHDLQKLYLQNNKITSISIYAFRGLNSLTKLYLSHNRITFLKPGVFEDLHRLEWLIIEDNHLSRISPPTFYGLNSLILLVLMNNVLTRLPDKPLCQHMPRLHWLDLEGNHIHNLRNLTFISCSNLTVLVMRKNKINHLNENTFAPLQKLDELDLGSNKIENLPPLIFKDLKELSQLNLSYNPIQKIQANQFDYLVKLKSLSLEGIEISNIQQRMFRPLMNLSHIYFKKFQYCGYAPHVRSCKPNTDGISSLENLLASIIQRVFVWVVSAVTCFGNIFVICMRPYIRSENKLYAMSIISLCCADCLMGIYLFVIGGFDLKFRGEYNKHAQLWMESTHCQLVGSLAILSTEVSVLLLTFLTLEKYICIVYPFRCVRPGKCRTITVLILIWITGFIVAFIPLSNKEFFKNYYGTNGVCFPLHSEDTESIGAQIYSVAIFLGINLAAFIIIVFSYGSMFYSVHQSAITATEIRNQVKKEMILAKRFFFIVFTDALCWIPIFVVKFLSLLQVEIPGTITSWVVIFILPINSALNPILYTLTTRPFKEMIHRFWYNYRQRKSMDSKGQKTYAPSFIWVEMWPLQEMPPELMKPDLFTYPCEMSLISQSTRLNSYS
How it was run: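 cAMP accumulation readout: after 1 mM IBMX for 40 min, endogenous-RXFP1 OVCAR5 cells got rising peptide concentrations without FCS, 30 min, 37° C, then lysis with HTRF cAMP reagents. Nonlinear regression gave EC50; Emax expressed relative to H2-relaxin maximum, same occasion.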

Row | Emax | Structure (SMILES)
1 | 92% | CCCCCCCCCCCCCCCCCC(=O)N[C@@H](CCC(=O)N[C@@H](CCC(=O)N[C@@H](CCC(=O)NCCOCCOCC(=O)NCCOCCOCC(=O)NCCOCCOCC(=O)NCCCC[C@H](NC(=O)[C@H](CCCCN)NC(=O)[C@H](CCCCN)NC(=O)[C@H](CCCNC(=N)N)NC(=O)C(C)(C)NC(=O)[C@H](CO)NC(=O)[C@H](Cc1c[nH]c2ccccc12)NC(=O)[C@@H](NC(=O)[C@H](CO)NC(=O)[C@H](CCCC)NC(=O)CNC(=O)[C@H](CCC(=O)O)NC(=O)C(C)(C)NC(=O)C(C)(C)NC(=O)[C@@H](NC(=O)[C@H](CCC(N)=O)NC(=O)[C@H](CC(C)C)NC(=O)[C@H](CCCNC(=N)N)NC(=O)[C@@H](NC(=O)[C@H](CCCCN)NC(=O)[C@H](CCC(=O)O)NC(=O)[C@H](CCCNC(=N)N)NC(=O)CNC(=O)[C@H](CCC(=O)O)NC(=O)[C@H](CC(C)C)NC(C)=O)C(C)C)[C@@H](C)CC)[C@@H](C)O)C(N)=O)C(=O)O)C(=O)O)C(=O)O [compound 77] (Ac-LEGREKVRLQI[Aib][Aib]EG[Nle]STWS[Aib]RKKK([AEEA-AEEA-AEEA-γGlu-γGlu-γGlu-Stearoyl])-NH2)
2 | 80% | CCCCCCCCCCCCCCCC(=O)N[C@@H](CCC(=O)N[C@@H](CCC(=O)N[C@@H](CCC(=O)NCCCC[C@H](NC(=O)COCCOCCNC(=O)COCCOCCNC(=O)COCCOCCNC(=O)[C@H](CCCCNC(C)=O)NC(=O)[C@H](CCCCN)NC(=O)[C@H](CCCNC(=N)N)NC(=O)C(C)(C)NC(=O)[C@H](CO)NC(=O)[C@H](Cc1ccc(O)cc1)NC(=O)[C@@H](NC(=O)[C@H](CO)NC(=O)[C@H](CCC(N)=O)NC(=O)CNC(=O)[C@H](CCC(=O)O)NC(=O)C(C)(C)NC(=O)C(C)(C)NC(=O)[C@@H](NC(=O)[C@H](CCCCNC(C)=O)NC(=O)[C@H](C)NC(=O)[C@H](CCCNC(=N)N)NC(=O)[C@@H](NC(=O)[C@H](CCCCN)NC(=O)[C@H](CCC(=O)O)NC(=O)[C@H](CCCNC(=N)N)NC(=O)CNC(=O)[C@H](CCC(=O)O)NC(=O)[C@H](CC(C)C)NC(C)=O)C(C)C)[C@@H](C)CC)[C@@H](C)O)C(N)=O)C(=O)O)C(=O)O)C(=O)O [compound 179] (Ac-LEGREKVRAK(Ac)I[Aib][Aib]EGQSTYS[Aib]RKK(Ac)[AEEA][AEEA][AEEA]K([γGlu-γGlu-γGlu-Palmitoyl])-NH2)
3 | 100% | CCCCCCCCCCCCCCCC(=O)N[C@@H](CCC(=O)N[C@@H](CCC(=O)N[C@@H](CCC(=O)NCCCC[C@H](NC(=O)[C@H](CCCCN)NC(=O)[C@H](CCCCN)NC(=O)[C@H](CCCNC(=N)N)NC(=O)C(C)(C)NC(=O)[C@H](CO)NC(=O)[C@H](Cc1c[nH]c2ccccc12)NC(=O)[C@@H](NC(=O)[C@H](CO)NC(=O)[C@H](CCCC)NC(=O)CNC(=O)[C@H](CCC(=O)O)NC(=O)C(C)(C)NC(=O)C(C)(C)NC(=O)[C@@H](NC(=O)[C@H](C)NC(=O)[C@H](C)NC(=O)[C@H](CCCNC(=N)N)NC(=O)[C@@H](NC(=O)[C@H](CCCCN)NC(=O)[C@H](CCC(=O)O)NC(=O)[C@H](CCCNC(=N)N)NC(=O)CNC(=O)[C@H](CCC(=O)O)NC(=O)[C@H](CC(C)C)NC(=O)[C@H](CCC(=O)O)NC(C)=O)C(C)C)[C@@H](C)CC)[C@@H](C)O)C(N)=O)C(=O)O)C(=O)O)C(=O)O [compound 6] (Ac-ELEGREKVRAAI[Aib][Aib]EG[Nle]STWS[Aib]RKKK([γGlu-γGlu-γGlu-Palmitoyl])-NH2)
